Values after ≈ are worked out from the molar mass of the structure shown.
Assays:
Staphylococcus aureus = test: Antibacterial activity against Staphylococcus aureus clinical isolates incubated for 18 hrs by Mueller-Hinton broth based assay; format: functional
Topoisomerase IV = Topoisomerase IV (Staphylococcus aureus, UniProt P0C1S7+P0C1U9); test: Inhibition of Staphylococcus aureus DNA topoisomerase 4 using linear pBR322 as substrate preincubated for 10 mins followed by ATP addition and measured after 1 hrs ATP hydrolysis assay; format: protein-complex assay
DNA gyrase = DNA gyrase (Staphylococcus aureus, UniProt P0A0K8+P20831); test: Inhibition of Staphylococcus aureus DNA gyrase using supercoiled pBR322 as substrate preincubated for 1 hrs followed by proteinase K addition and measured after 30 mins by agarose gel electrophoresis; format: protein-complex assay

- MIC (Staphylococcus aureus): 8 µg/mL (≈ 23.6 µM)
- IC50 (Topoisomerase IV): > 10 µM
- IC50 (DNA gyrase): > 50 µM
SMILES: O=C(NC(=S)NNC(=O)c1cc2ccccc2[nH]1)c1ccccc1

— ChEMBL document CHEMBL6083234, “Discovery of novel 1,4-dicarbonylthiosemicarbazides as DNA gyrase inhibitors for the treatment of MRSA infection” (Eur J Med Chem, 2024)
